Experimental data as given in the supplement of paper PMC4862054.

Key:
Assay in all cases: normalised viability (% of control), CellTiter-Blue; higher = more viable cells (about 100 = DMSO control)
Conditions in all cases: incubation time: 72 h
CAL-51 [1] = test system: CAL-51
Procedure, shortened: (§1)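 The reported figure is normalised viability at a single listed concentration of the series. Breast cancer cell lines (20 µl suspension) went onto 384-well plates holding compound in 5 µl medium for 72 h. CellTiter-Blue (2.5 µl, 2 h, 37 °C) was read by fluorescence at 560/590 nm, and each plate was scaled to vehicle at 100 and a positive kill control at 0.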

CAL-148 [2] = test system: CAL-148
Procedure, shortened: as §1

MDA-MB-436 [3] = test system: MDA-MB-436
Procedure, shortened: as §1

MFM-223 [4] = test system: MFM-223
Procedure, shortened: as §1

HCC1143 [5] = test system: HCC1143
Procedure, shortened: as §1

HDQ-P1 [6] = test system: HDQ-P1
Procedure, shortened: as §1

MDA-MB-231 [7] = test system: MDA-MB-231
Procedure, shortened: as §1

MDA-MB-468 [8] = test system: MDA-MB-468
Procedure, shortened: as §1

Hs578T [9] = test system: Hs578T
Procedure, shortened: as §1

HCC1937 [10] = test system: HCC1937
Procedure, shortened: as §1

MDA-MB-453 [11] = test system: MDA-MB-453
Procedure, shortened: as §1

CAL-85-1 [12] = test system: CAL-85-1
Procedure, shortened: as §1

BT-549 [13] = test system: BT-549
Procedure, shortened: as §1

HCC1599 [14] = test system: HCC1599
Procedure, shortened: as §1

SK-BR-3 [15] = test system: SK-BR-3
Procedure, shortened: as §1

CAL-120 [16] = test system: CAL-120
Procedure, shortened: as §1

CAL-51 [17] = test system: CAL-51; remark: listed apart in the source
Description: (§2)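 DSRT, CellTiter-Blue viability, 72 h incubation. Signal is normalised to DMSO and benzethonium chloride controls. Value is the normalised response at dose 3.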

CAL-148 [18] = test system: CAL-148; remark: listed apart in the source
Description: as §2

MDA-MB-436 [19] = test system: MDA-MB-436; remark: listed apart in the source
Description: as §2

MFM-223 [20] = test system: MFM-223; remark: listed apart in the source
Description: as §2

BT-474 = test system: BT-474
Description: as §2

HCC1143 [21] = test system: HCC1143; remark: listed apart in the source
Description: as §2

HDQ-P1 [22] = test system: HDQ-P1; remark: listed apart in the source
Description: as §2

MDA-MB-231 [23] = test system: MDA-MB-231; remark: listed apart in the source
Description: as §2

MDA-MB-468 [24] = test system: MDA-MB-468; remark: listed apart in the source
Description: as §2

Hs578T [25] = test system: Hs578T; remark: listed apart in the source
Description: as §2

HCC1937 [26] = test system: HCC1937; remark: listed apart in the source
Description: as §2

MDA-MB-453 [27] = test system: MDA-MB-453; remark: listed apart in the source
Description: as §2

CAL-85-1 [28] = test system: CAL-85-1; remark: listed apart in the source
Description: as §2

BT-549 [29] = test system: BT-549; remark: listed apart in the source
Description: as §2

DU-4475 = test system: DU-4475
Description: as §2

HCC1599 [30] = test system: HCC1599; remark: listed apart in the source
Description: as §2

SK-BR-3 [31] = test system: SK-BR-3; remark: listed apart in the source
Description: as §2

CAL-120 [32] = test system: CAL-120; remark: listed apart in the source
Description: as §2

## COc1ccc(-c2ccc3c(N4CCOC[C@@H]4C)nc(N4CCOC[C@@H]4C)nc3n2)cc1CO [AZD8055]
CAL-51 [1]; 30 nM
  normalised viability: 47.5%
CAL-148 [2]; 30 nM
  normalised viability: 53%
MDA-MB-436 [3]; 1000 nM
  normalised viability: 32.5%
MFM-223 [4]; 1000 nM
  normalised viability: 18%
HCC1143 [5]; 1000 nM
  normalised viability: 32.5%
HDQ-P1 [6]; 30 nM
  normalised viability: 53.1%
MDA-MB-231 [7]; 1000 nM
  normalised viability: 23.9%
MDA-MB-468 [8]; 1000 nM
  normalised viability: 29.1%
Hs578T [9]; 1000 nM
  normalised viability: 23.7%
HCC1937 [10]; 1000 nM
  normalised viability: 32.6%
MDA-MB-453 [11]; 30 nM
  normalised viability: 33.6%
CAL-85-1 [12]; 30 nM
  normalised viability: 56.9%
BT-549 [13]; 1000 nM
  normalised viability: 18.7%
HCC1599 [14]; 1000 nM
  normalised viability: 46.4%
SK-BR-3 [15]; 1000 nM
  normalised viability: 13%
CAL-120 [16]; 1000 nM
  normalised viability: 13.9%
CAL-51 [17]; 10 nM
  normalised viability: 67.4%
CAL-148 [18]; 10 nM
  normalised viability: 80.9%
MDA-MB-436 [19]; 100 nM
  normalised viability: 70.7%
MFM-223 [20]; 100 nM
  normalised viability: 26.6%
BT-474; 100 nM
  normalised viability: 52.2%
HCC1143 [21]; 100 nM
  normalised viability: 55.8%
HDQ-P1 [22]; 10 nM
  normalised viability: 76.8%
MDA-MB-231 [23]; 100 nM
  normalised viability: 50%
MDA-MB-468 [24]; 100 nM
  normalised viability: 70%
Hs578T [25]; 100 nM
  normalised viability: 33.7%
HCC1937 [26]; 100 nM
  normalised viability: 42.6%
MDA-MB-453 [27]; 10 nM
  normalised viability: 80.3%
CAL-85-1 [28]; 10 nM
  normalised viability: 79.8%
BT-549 [29]; 100 nM
  normalised viability: 44.3%
DU-4475; 10 nM
  normalised viability: 102%
HCC1599 [30]; 100 nM
  normalised viability: 65.9%
SK-BR-3 [31]; 100 nM
  normalised viability: 23.6%
CAL-120 [32]; 100 nM
  normalised viability: 32.5%

## C[C@]12CC[C@H](O)CC1=CC[C@@H]1[C@@H]2CC[C@]2(C)C(c3cccnc3)=CC[C@@H]12 [Abiraterone]
CAL-51 [1]; 15 nM
  normalised viability: 107%
CAL-148 [2]; 15 nM
  normalised viability: 84.2%
MDA-MB-436 [3]; 500 nM
  normalised viability: 104%
MFM-223 [4]; 500 nM
  normalised viability: 96.6%
HCC1143 [5]; 500 nM
  normalised viability: 80.2%
HDQ-P1 [6]; 15 nM
  normalised viability: 108%
MDA-MB-231 [7]; 500 nM
  normalised viability: 106%
MDA-MB-468 [8]; 500 nM
  normalised viability: 106%
Hs578T [9]; 500 nM
  normalised viability: 116%
HCC1937 [10]; 500 nM
  normalised viability: 83%
MDA-MB-453 [11]; 15 nM
  normalised viability: 110%
CAL-85-1 [12]; 15 nM
  normalised viability: 80.5%
BT-549 [13]; 500 nM
  normalised viability: 111%
HCC1599 [14]; 500 nM
  normalised viability: 385%
SK-BR-3 [15]; 500 nM
  normalised viability: 101%
CAL-120 [16]; 500 nM
  normalised viability: 81.4%
CAL-51 [17]; 5 nM
  normalised viability: 106%
CAL-148 [18]; 5 nM
  normalised viability: 86.7%
MDA-MB-436 [19]; 50 nM
  normalised viability: 126%
MFM-223 [20]; 50 nM
  normalised viability: 98%
BT-474; 50 nM
  normalised viability: 112%
HCC1143 [21]; 50 nM
  normalised viability: 75.2%
HDQ-P1 [22]; 5 nM
  normalised viability: 109%
MDA-MB-231 [23]; 50 nM
  normalised viability: 95.6%
MDA-MB-468 [24]; 50 nM
  normalised viability: 107%
Hs578T [25]; 50 nM
  normalised viability: 91.7%
HCC1937 [26]; 50 nM
  normalised viability: 98.9%
MDA-MB-453 [27]; 5 nM
  normalised viability: 91.6%
CAL-85-1 [28]; 5 nM
  normalised viability: 91.1%
BT-549 [29]; 50 nM
  normalised viability: 108%
DU-4475; 5 nM
  normalised viability: 94%
HCC1599 [30]; 50 nM
  normalised viability: 102%
SK-BR-3 [31]; 50 nM
  normalised viability: 73.4%
CAL-120 [32]; 50 nM
  normalised viability: 87.6%

## CN(C)CCN1C(=O)c2cccc3cc(N)cc(c23)C1=O [Amonafide]
CAL-51 [1]; 30 nM
  normalised viability: 102%
CAL-148 [2]; 30 nM
  normalised viability: 85.8%
MDA-MB-436 [3]; 1000 nM
  normalised viability: 95.7%
MFM-223 [4]; 1000 nM
  normalised viability: 99.3%
HCC1143 [5]; 1000 nM
  normalised viability: 86.3%
HDQ-P1 [6]; 30 nM
  normalised viability: 104%
MDA-MB-231 [7]; 1000 nM
  normalised viability: 67.8%
MDA-MB-468 [8]; 1000 nM
  normalised viability: 106%
Hs578T [9]; 1000 nM
  normalised viability: 115%
HCC1937 [10]; 1000 nM
  normalised viability: 69.2%
MDA-MB-453 [11]; 30 nM
  normalised viability: 85.7%
CAL-85-1 [12]; 30 nM
  normalised viability: 79.8%
BT-549 [13]; 1000 nM
  normalised viability: 102%
HCC1599 [14]; 1000 nM
  normalised viability: 101%
SK-BR-3 [15]; 1000 nM
  normalised viability: 98.7%
CAL-120 [16]; 1000 nM
  normalised viability: 78.7%
CAL-51 [17]; 10 nM
  normalised viability: 111%
CAL-148 [18]; 10 nM
  normalised viability: 85.2%
MDA-MB-436 [19]; 100 nM
  normalised viability: 104%
MFM-223 [20]; 100 nM
  normalised viability: 87.5%
BT-474; 100 nM
  normalised viability: 119%
HCC1143 [21]; 100 nM
  normalised viability: 87%
HDQ-P1 [22]; 10 nM
  normalised viability: 105%
MDA-MB-231 [23]; 100 nM
  normalised viability: 88%
MDA-MB-468 [24]; 100 nM
  normalised viability: 113%
Hs578T [25]; 100 nM
  normalised viability: 84.8%
HCC1937 [26]; 100 nM
  normalised viability: 109%
MDA-MB-453 [27]; 10 nM
  normalised viability: 94.1%
CAL-85-1 [28]; 10 nM
  normalised viability: 91.6%
BT-549 [29]; 100 nM
  normalised viability: 94.9%
DU-4475; 10 nM
  normalised viability: 95.8%
HCC1599 [30]; 100 nM
  normalised viability: 102%
SK-BR-3 [31]; 100 nM
  normalised viability: 76%
CAL-120 [32]; 100 nM
  normalised viability: 95.4%
